Experimental data: US20240158754A1, “REDUCING HIGH MANNOSE GLYCAN PROTEIN EXPRESSION USING GUANOSINE 5'-MONOPHOSPHATE” (MERCK SHARP & DOHME LLC, priority 2021, published 2024)
“Also recorded” adds a separate entry of the source.

Key:
Format in all cases: cell-based, Chinese hamster
[1] = test system: recombinant CHO cell lines expressing monoclonal antibodies (mAb A, mAb B, or mAb C); assay: 10-day fed-batch assay with GMP (Example 2), statements for all cell lines
Description: (§1) Cells were cultured in Merck proprietary chemically defined media in increasing volume to obtain sufficient number of cells for inoculation. For cell lines expressing mAb A and mAb B, cells were seeded at 0.5×10^6 cells per mL into Merck proprietary chemically defined production medium in two 1 L Erlenmeyer flasks at a final volume of 250 mL in each flask. For cell line expressing mAb C, cells were seeded at 1.0×10^6 cells per mL into production medium in two 1 L Erlenmeyer flasks at a final volume of 250 mL in each flask. Cells were incubated at 36.5° C., with agitation at 100 rpm, in presence of 5% CO2, and humidity ≥70%. Merck proprietary chemically defined nutrient feed media were added to all the cultures on day 3, day 6, and day 8. On Day 6, cells from both 1 L flasks for each cell line were pooled and then aliquoted in 125 mL Erlenmeyer flasks with 30 mL working volume, respectively. A 200 mM stock solution of GMP was prepared by adding Guanosine 5′-monophosphate disodium salt hydrate (Sigma Aldrich, St. Louis, MO) in purified water. After the cells were aliquoted in separate 125 mL test flasks on day 6, GMP was added to the cultures at final concentration of 1 mM or 10 mM. No change in pH and osmolality was observed as a result of the GMP addition. A control condition with no added GMP was also created for each cell line. All conditions were run with two replicates. All cultures were harvested on day 10.
(§2) Cell culture parameters were analyzed on day 0, 3, 6, 8 and 10, and the corresponding spent medium supernatants were evaluated for antibody titer, charge variants, and glycan analysis on day 10 to assess the effect of GMP on cell growth, viability, titer, and glycan profile of the recombinant antibodies. Cell density and viability were measured using the trypan blue exclusion method with Cedex Bio Analyzer (Roche Diagnostics GmbH, Mannheim, Germany). Culture pH was measured using ABL80 Blood/Gas Analyzer (Radiometer, Denmark). Cell culture metabolites were measured using RX Imola (Randox Laboratories Ltd. Crumlin, UK) and osmolality was measured using a micro-Osmometer 2020 (Advanced Instruments, Norwood, MA).
(§3) Antibody titer was analyzed using a mAb-specific reverse-phase high-performance liquid chromatography (HPLC) or analytical Protein A HPLC method. Multiple product quality attributes were analyzed on harvested cell-culture fluid (HCCF) after a Protein A chromatography step. Analysis of HMW species was performed by size-exclusion chromatography, analysis of charge variants was performed by ion exchange chromatography, and analysis of N-glycan was performed by ultra-performance liquid chromatography (UPLC) with 2-aminobenzamide (2-AB) labeling.

[2] = test system: recombinant CHO cell lines expressing monoclonal antibodies (mAb A, mAb B, or mAb C); assay: 10-day fed-batch assay of eighteen components (Example 1), statements for all cell lines; conditions: among the 18 tested components
Description: Experiment was executed by dividing into 6-blocks. In each experiment block, 3 unique test components were assessed and control conditions with no added test component were included for all three cell lines. Cells were cultured in Merck proprietary chemically defined media in increasing volume to obtain sufficient number of cells for inoculation. For cell lines expressing mAb A and mAb B, cells were seeded at 0.5×10^6 cells per mL into Merck proprietary chemically defined production medium in two 1 L Erlenmeyer flasks at a final volume of 250 mL in each flask. […]
as §2, with “titer, charge variants and glycan” for “titer, charge variants, and glycan”, “effect of added components on cell” for “effect of GMP on cell”, “viability, titer, aggregation, charge variants and glycan” for “viability, titer, and glycan”, “Norwood, MA). […]” for “Norwood, MA).”

[3] = test system: recombinant CHO cell line expressing mAb C; assay: 10-day fed-batch assay of eighteen components (Example 1); conditions: mAb C cell line (Table 4, untitled)
Description: (§4) Experiment was executed by dividing into 6-blocks. In each experiment block, 3 unique test components were assessed and control conditions with no added test component were included for all three cell lines. Cells were cultured in Merck proprietary chemically defined media in increasing volume to obtain sufficient number of cells for inoculation. […] Merck proprietary chemically defined nutrient feed media were added to all the cultures on day 3, day 6, and day 8. On Day 6, cells from both 1 L flasks for each cell line were pooled and then aliquoted in 125 mL Erlenmeyer flasks with 30 mL working volume, respectively. Stock solutions for each of the tested component were prepared as defined in Table 1 below, and all components were ordered from Sigma Aldrich (St. Louis, MO). Component 6 is GMP. All solutions were prepared in purified water. For each cell line, components were added to the cultures at final concentration at a lower and higher concentrations as per Table 1, respectively, on day 6 of the fed-batch culture. […] A control condition with no added test component was also created for each cell line. All conditions were run with two replicates. All cultures were harvested on day 10.
(§5) Cell culture parameters were analyzed on day 0, 3, 6, 8 and 10, and the corresponding spent medium supernatants were evaluated for antibody titer, charge variants and glycan analysis on day 10 to assess the effect of added components on cell growth, viability, titer, aggregation, charge variants and glycan profile of the recombinant antibodies. Cell density and viability were measured using the trypan blue exclusion method with Cedex Bio Analyzer (Roche Diagnostics GmbH, Mannheim, Germany). Culture pH was measured using ABL80 Blood/Gas Analyzer (Radiometer, Denmark).
as §3
(§6) Data generated from all 6 blocks for all tested components (excluding component 9 and 12) were transformed using a dimensionless number, which is termed as Concentration Impact Factor, and abbreviated as Cf. Cf provides a score value for impact of change in component's concentration on desired response when tested at different concentrations. The equation used to transform data to calculate Cf is described below as equation 1. The first part of the equation represents a directional vector, which determines whether increasing the component concentration from a lower value to a higher value results in a positive or negative response for the measure attribute. The second part of the equation then calculates the magnitude of that change as the concentration changes from low to high.
(§7) wherein, • Cf. Concentration impact factor (dimensionless number) • H: Response for a measured attribute when component is added at a higher concentration • L: Response for a measured attribute when component is added at a lower concentration • C: Response for a measured attribute […] • hc: high concentration (mM) of the component added • lc: low concentration (mM) of the component added

[4] = test system: recombinant CHO cell line expressing mAb A; assay: as above; conditions: for Relative IVCC (% to Control): added day 6, harvest day 10; for Relative IVCC (% to Control) / Relative Titer (% to Control) / Relative Viability (% to Control): mAb A cell line
Description: as §4, §5, §3, §6, §7

[5] = test system: recombinant CHO cell line expressing mAb B; assay: as above
Description: as §4, §5, §3, §6, §7

[6] = test system: recombinant CHO cell line expressing mAb C; assay: 10-day fed-batch assay with GMP (Example 2)
Description: as §1, §2, §3

[7] = test system: recombinant CHO cell line expressing mAb A; assay: 10-day fed-batch assay with GMP (Example 2)
Description: as §1, §2, §3

[8] = test system: recombinant CHO cell line expressing mAb B; assay: 10-day fed-batch assay with GMP (Example 2)
Description: as §1, §2, §3

[9] = Higher Concentration per Table 1
[10] = Lower Concentration per Table 1

Nc1nc2c(ncn2[C@@H]2O[C@H](COP(=O)(O)O)[C@@H](O)[C@H]2O)c(=O)[nH]1 [Component 6, Guanosine 5′-monophosphate]
higher order mannose structures [1]: slight decrease | impact on cell culture parameters ([1]; GMP 1 mM): no impact | HMG content on the recombinant antibodies ([1]; GMP 1 mM and 10 mM): dose dependent decrease | high mannose ([1]; GMP 10 mM, all cell lines): large decreases | Man 5 content ([1]; mAb A, mAb B, and mAb C, listed as GMP): major high mannose species downregulated; also recorded: dose dependent decrease | cell culture performance parameters (IVCC, final viability, titer, ammonia, lactate) ([1]; three CHO cell lines): did not significantly affect | overall HMG content, in particular Man 5 species, of the monoclonal antibodies produced [2]: reduced | Relative IVCC (% to Control) [3, 9]: 79.88 % to Control | Relative Titer (% to Control) [3, 9]: 103.8 % to Control | Relative Viability (% to Control) [3, 9]: 87.81 % to Control | Relative IVCC (% to Control) [3, 10]: 97.24 % to Control | Relative Titer (% to Control) [3, 10]: 102.19 % to Control | Relative Viability (% to Control) [3, 10]: 99.25 % to Control | Relative IVCC (% to Control) ([4]; Higher Concentration per Table 1 (GMP 10 mM)): 95.08 % to Control | Relative Titer (% to Control) [4, 9]: 96.14 % to Control | Relative Viability (% to Control) [4, 9]: 91.8 % to Control | Relative IVCC (% to Control) ([4]; Lower Concentration per Table 1 (GMP 1 mM)): 100.61 % to Control | Relative Titer (% to Control) [4, 10]: 101.88 % to Control | Relative Viability (% to Control) [4, 10]: 96.75 % to Control | dose dependent change in Man 5 peak (Cf) ([4]; mAb A, lower vs higher concentration): largest dose dependent decrease in Man 5 peak | Relative IVCC (% to Control) [5, 9]: 90.77 % to Control | Relative Titer (% to Control) [5, 9]: 94.86 % to Control | Relative Viability (% to Control) [5, 9]: 95.28 % to Control | Relative IVCC (% to Control) [5, 10]: 96.14 % to Control | Relative Titer (% to Control) [5, 10]: 100.81 % to Control | Relative Viability (% to Control) [5, 10]: 100.77 % to Control | Cumulative Titer ([6]; GMP 1 mM): 690 mg/L | Final viability ([6]; GMP 1 mM): 98.5% | IVCC ([6]; GMP 1 mM): 86.5 10^6 cells · Day/mL | high mannose glycans ([6]; GMP 1 mM): slight decrease | Cumulative Titer ([6]; GMP 10 mM): 701 mg/L | Final viability ([6]; GMP 10 mM): 86.3% | IVCC ([6]; GMP 10 mM): 71.1 10^6 cells · Day/mL | cell growth ([6]; GMP 10 mM): considerable decrease | Man 5 (HMG level, value relative to control) ([6]; GMP final concentration 1 mM): 0.98 | Man 5 (HMG level, value relative to control) ([6]; GMP final concentration 10 mM): 0.68 | Cumulative Titer ([7]; GMP 1 mM): 158 mg/L | Final viability ([7]; GMP 1 mM): 85.5% | IVCC ([7]; GMP 1 mM): 46.4 10^6 cells · Day/mL | high mannose glycans ([7]; GMP 1 mM): slight decrease | Cumulative Titer ([7]; GMP 10 mM): 167 mg/L | Final viability ([7]; GMP 10 mM): 77.4% | IVCC ([7]; GMP 10 mM): 44.3 10^6 cells · Day/mL | cell growth ([7]; GMP 10 mM): slight decrease | Man 5 (HMG level, value relative to control) ([7]; GMP final concentration 1 mM): 0.97 | Total HMG (value relative to control) ([7]; GMP final concentration 1 mM): 0.96 | Man 5 (HMG level, value relative to control) ([7]; GMP final concentration 10 mM): 0.76 | Total HMG (value relative to control) ([7]; GMP final concentration 10 mM): 0.76 | Cumulative Titer ([8]; GMP 1 mM): 314 mg/L | Final viability ([8]; GMP 1 mM): 86.9% | IVCC ([8]; GMP 1 mM): 52.7 10^6 cells · Day/mL | Cumulative Titer ([8]; GMP 10 mM): 296 mg/L | Final viability ([8]; GMP 10 mM): 82.1% | IVCC ([8]; GMP 10 mM): 49.7 10^6 cells · Day/mL | cell growth ([8]; GMP 10 mM): slight decrease | Man 5 (HMG level, value relative to control) ([8]; GMP final concentration 1 mM): 1.02 | Total HMG (value relative to control) ([8]; GMP final concentration 1 mM): 1.01 | Man 5 (HMG level, value relative to control) ([8]; GMP final concentration 10 mM): 0.91 | Total HMG (value relative to control) ([8]; GMP final concentration 10 mM): 0.90
